Source: patent US10226048B2 (priority 2014, dated 2019)
Like-named read-outs stand apart in the source and are kept apart here.

Key:
E-Coli = conditions: 2% HP
[1] = test system: Staphylococcus Epidermidis; conditions: 2% HP
[2] = Stability of PAA/NVPA in alkaline solution (ion-exchange chromatography); assay type: physicochemical; conditions: for total PAA decomposed: pH adjusted to 9.3 with sodium hydroxide
Description: PAA is not very stable in both acidic and basic solutions (reactions 2 and 3), and is decomposed into acetic acid and oxygen easily. Additionally, PAA is decomposed by metal catalysis and hydrolysis, respectively, in an aqueous solution. […] When sodium hydroxide was used to adjust the pH of PAA solution to 9.3, about 80% of the total PAA were decomposed in 1 minute, with more than 90% being decomposed in 5 minutes. (FIG. 4).
Rapid decomposition of PAA will result in a loss of the disinfecting ability. Thus, it is critical to maintain PAA relatively stable in an alkaline solution. When pH was adjusted partially by sodium carbonate, greater than 90% of the total PAA was maintained in the 10 minutes (FIG. 4). The addition of a metal complexing agent, such as sodium pyrophosphate, etc., may be used to stabilize PAA. It is very important to maintain a relatively long pot-life of NVPA, because some microorganisms are difficult to being killed. Such microorganisms may require at least 3-5-minutes of contact time with the disinfecting detergent. Since NVPA is not very stable, the formulation of the invention is divided to two parts to preserve a long shelf life of PAA. The two parts will be mixed just prior to use. After mixing, PAA will be converted to NVPA and 90% of the total PAA will remain for at least 10 minutes.
FIG. 4. The pH of PAA solution was 9.3. The initial concentrations of PAA and HP were 0.2% (w/w %) and 4% (w/w %), respectively. The pH of the solution was adjusted by sodium hydroxide solution or sodium phosphate solution, and sodium carbonate or a stabilizer such like sodium pyrophosphate was used to stabilize PAA. The quantitative determination of PAA/NVPA was performed by ion-exchange chromatography.

[3] = Dissociation of PAA in aqueous solution; conditions: pH 9.5

Compound | Disinfecting efficacy (E-Coli; contact time 1 minute) | Disinfecting efficacy (E-Coli; contact time 2 minutes) | Disinfecting efficacy ([1]; contact time 1 minute) | Disinfecting efficacy ([1]; contact time 2 minutes) | total PAA maintained ([2]; pH adjusted partially by sodium carbonate, in 10 minutes) | total PAA decomposed ([2]; in 1 minute) | total PAA decomposed ([2]; in 5 minutes) | share of initial PAA concentration existing in this state [3]
OO [HP, hydrogen peroxide] | ~90% | ~99% | ~90% | ~99% | – | – | – | –
CC(=O)OO [PAA, Peracetic Acid] | – | – | – | – | greater than 90% | about 80% | more than 90% | 5%
CC(=O)OO [NVPA, non-volatile peracetate] | – | – | – | – | – | – | – | 95%
